We go through 21 compounds from patent US11918581B2, “Combination therapy comprising JAK pathway inhibitor and rock inhibitor” (Incyte Corporation, priority 2021, dated 2024).

The target of test [1] is human JAK1 (a.a. 837-1142) (Homo sapiens, UniProt P23458). As to the kind of experiment: In vitro JAK kinase assay (HTRF), JAK1. The test is classed as biochemical. Conditions: 1 mM ATP.
Protocol: (§1) The catalytic activity of JAK1, JAK2, or JAK3 was assayed by measuring the phosphorylation of a biotinylated peptide. The phosphorylated peptide was detected by homogenous time resolved fluorescence (HTRF). […] Reactions are carried out at room temperature for 1 hour and then stopped with 20 μL 45 mM EDTA, 300 nM SA-APC, 6 nM Eu-Py20 in assay buffer (Perkin Elmer, Boston, MA). Binding to the Europium labeled antibody takes place for 40 minutes and HTRF signal was measured on a Fusion plate reader (Perkin Elmer, Boston, MA).
For test [2], the target named is human JAK2 (a.a. 828-1132) (Homo sapiens (Human), UniProt O60674). The test can be described thus: In vitro JAK kinase assay (HTRF), JAK2. The test is classed as biochemical. Conditions: JAK2/JAK1 IC50 ratio, 1 mM ATP. A general note: Time-resolved FRET reads energy transfer from a long-lived donor to a nearby acceptor.
Chain of human JAK2 (a.a. 828-1132) (O60674 828-1132): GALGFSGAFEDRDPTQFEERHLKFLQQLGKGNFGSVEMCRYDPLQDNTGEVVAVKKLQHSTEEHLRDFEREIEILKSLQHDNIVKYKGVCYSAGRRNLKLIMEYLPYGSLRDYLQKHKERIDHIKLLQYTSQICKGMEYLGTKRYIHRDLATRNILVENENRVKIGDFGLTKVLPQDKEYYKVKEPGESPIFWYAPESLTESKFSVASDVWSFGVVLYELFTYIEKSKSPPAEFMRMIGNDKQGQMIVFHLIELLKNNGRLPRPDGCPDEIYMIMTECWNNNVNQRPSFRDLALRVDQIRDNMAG
Protocol: as §1

By IC50 is commonly meant the concentration that gives 50% inhibition. Low readings indicate inhibition by little substance, high ones a need for much substance. With `N#CCC(C1CCN(c2cccc(Cl)n2)C1)n1cc(-c2ncnc3[nH]ccc23)cn1` (single isomer, unassigned) [Compound 6, 3-[1-(6-chloropyridin-2-yl)pyrrolidin-3-yl]-3-[4-(7H-pyrrolo[2,3-d]pyrimidin-4-yl)-1H-pyrazol-1-yl]propanenitrile], the IC50 in test [1] was < 10 nM. Moreover, in test [2], the JAK2/JAK1 is >10.
In the case of `N#CCC1(n2cc(-c3ncnc4[nH]ccc34)cn2)CN(C2CCN(C(=O)Nc3ccc(F)cc3C(F)(F)F)CC2)C1` [Compound 2, 4-{3-(Cyanomethyl)-3-[4-(7H-pyrrolo[2,3-d]pyrimidin-4-yl)-1H-pyrazol-1-yl]azetidin-1-yl}-N-[4-fluoro-2-(trifluoromethyl)phenyl] piperidine-1-carboxamide], in test [1], the IC50 was < 10 nM. Further, the JAK2/JAK1 in test [2] is >10.
For `N#CCC1(n2cc(-c3ncnc4[nH]ccc34)cn2)CN(C2CCN(C(=O)c3ccnc(C(F)(F)F)n3)CC2)C1` [Compound 3, [3-[4-(7H-pyrrolo[2,3-d]pyrimidin-4-yl)-1H-pyrazol-1-yl]-1-(1-{[2-(trifluoromethyl)pyrimidin-4-yl]carbonyl}piperidin-4-yl)azetidin-3-yl]acetonitrile], in that order: < 10 nM and >10.
In the same order, the values of `C[C@@H](O)c1nc2cnc3ccsc3c2n1[C@H]1CC[C@H](CC#N)OC1` [Compound 5, ((2R,5S)-5-{2-[(1R)-1-hydroxyethyl]-1H-imidazo[4,5-d]thieno[3,2-b]pyridin-1-yl}tetrahydro-2H-pyran-2-yl)acetonitrile] are < 100 nM and >10.
For `N#CCC(C1CCN(c2nc3cccnc3o2)C1)n1cc(-c2ncnc3[nH]ccc23)cn1` (stereo not drawn) [Compound 7, 3-(1-[1,3]oxazolo[5,4-b]pyridin-2-ylpyrrolidin-3-yl)-3-[4-(7H-pyrrolo[2,3-d]pyrimidin-4-yl)-1H-pyrazol-1-yl]propanenitrile], in that order: < 10 nM and >10.
Consider `N#CCC(CN1CCN(C(=O)c2ccc(C#N)cc2F)CC1)n1cc(-c2ncnc3[nH]ccc23)cn1` (stereo not drawn) [Compound 8, 4-[(4-{3-cyano-2-[4-(7H-pyrrolo[2,3-d]pyrimidin-4-yl)-1H-pyrazol-1-yl]propyl}piperazin-1-yl)carbonyl]-3-fluorobenzonitrile], for which the half-inhibitory concentration (IC50) in test [1] was < 10 nM. Moreover, the JAK2/JAK1 in test [2] is >10.
For `N#CCC(CN1CCN(C(=O)c2ccc(C#N)cc2F)CC1)n1ccc(-c2ncnc3[nH]ccc23)c1` (stereo not drawn) [Compound 9, 4-[(4-{3-cyano-2-[3-(7H-pyrrolo[2,3-d]pyrimidin-4-yl)-1H-pyrrol-1-yl]propyl}piperazin-1-yl)carbonyl]-3-fluorobenzonitrile], in that order: < 10 nM and >10.
Regarding `N#CC[C@]1(n2cc(-c3ncnc4[nH]ccc34)cn2)C[C@H](N2CCN(C(=O)c3ccnc(C(F)(F)F)n3)CC2)C1` [Compound 10, [trans-1-[4-(7H-pyrrolo[2,3-d]pyrimidin-4-yl)-1H-pyrazol-1-yl]-3-(4-{[2-(trifluoromethyl)pyrimidin-4-yl]carbonyl}piperazin-1-yl)cyclobutyl]acetonitrile], in test [1], the IC50 is < 10 nM. The JAK2/JAK1 in test [2] is recorded as >10.
In the same order, the values of `N#CC[C@]1(n2cc(-c3ncnc4[nH]ccc34)cn2)C[C@H](N2CCC(Oc3cc(CN4CC(O)C4)cc(C(F)(F)F)n3)CC2)C1` [Compound 11, {trans-3-(4-{[4-[(3-hydroxyazetidin-1-yl)methyl]-6-(trifluoromethyl)pyridin-2-yl]oxy}piperidin-1-yl)-1-[4-(7H-pyrrolo[2,3-d]pyrimidin-4-yl)-1H-pyrazol-1-yl]cyclobutyl}acetonitrile] are < 10 nM and >10.
For the compound `N#CC[C@]1(n2cc(-c3ncnc4[nH]ccc34)cn2)C[C@H](N2CCC(Oc3cc(CN4CCC[C@H]4CO)cc(C(F)(F)F)n3)CC2)C1` [Compound 12, {trans-3-(4-{[4-{[(2S)-2-(hydroxymethyl)pyrroli-din-1-yl]methyl}-6-(trifluoromethyl)pyridin-2-yl]oxy}piperidin-1-yl)-1-[4-(7H-pyrrolo[2,3-d]pyrimidin-4-yl)-1H-pyrazol-1-yl]cyclobutyl}acetonitrile], the IC50 in test [1] is < 10 nM. For the same compound, in test [2], the JAK2/JAK1 was >10.
In the same order, the values of `N#CC[C@]1(n2cc(-c3ncnc4[nH]ccc34)cn2)C[C@H](N2CCC(Oc3cc(CN4CCC[C@@H]4CO)cc(C(F)(F)F)n3)CC2)C1` [Compound 13, {trans-3-(4-{[4-{[(2R)-2-(hydroxymethyl)pyrroli-din-1-yl]methyl}-6-(trifluoromethyl)pyridin-2-yl]oxy}piperidin-1-yl)-1-[4-(7H-pyrrolo[2,3-d]pyrimidin-4-yl)-1H-pyrazol-1-yl]cyclobutyl}acetonitrile] are < 10 nM and >10.
In the same order, the values of `C[C@H](NC(=O)c1cc(F)c(N2CC(CC#N)(n3cc(-c4ncnc5[nH]ccc45)cn3)C2)cc1F)C(F)(F)F` [Compound 16, 4-{3-(cyanomethyl)-3-[4-(7H-pyrrolo[2,3-d]pyrimidin-4-yl)-1H-pyrazol-1-yl]azetidin-1-yl}-2,5-difluoro-N-[(1S)-2,2,2-trifluoro-1-methylethyl]benzamide] are < 10 nM and >10.
For `N#CCC1(n2cc(-c3ncnc4[nH]ccc34)cn2)CN([C@H]2CC[C@@H](Oc3cc(CCO)nc(C(F)(F)F)n3)CC2)C1` [Compound 18, {1-(cis-4-{[6-(2-hydroxyethyl)-2-(trifluoromethyl)pyrimidin-4-yl]oxy}cyclohexyl)-3-[4-(7H-pyrrolo[2,3-d]pyrimidin-4-yl)-1H-pyrazol-1-yl]azetidin-3-yl}acetonitrile], in that order: < 10 nM and >10.
As to `CCNCc1cc(O[C@H]2CC[C@@H](N3CC(CC#N)(n4cc(-c5ncnc6[nH]ccc56)cn4)C3)CC2)nc(C(F)(F)F)c1` [Compound 19, {1-(cis-4-{[4-[(ethylamino)methyl]-6-(trifluoromethyl)pyridin-2-yl]oxy}cyclohexyl)-3-[4-(7H-pyrrolo[2,3-d]pyrimidin-4-yl)-1H-pyrazol-1-yl]azetidin-3-yl}acetonitrile], in test [1], the IC50 is < 10 nM. In addition, the JAK2/JAK1 in test [2] is recorded as >10.
In the same order, the values of `CC(C)(O)c1cc(O[C@H]2CC[C@@H](N3CC(CC#N)(n4cc(-c5ncnc6[nH]ccc56)cn4)C3)CC2)nc(C(F)(F)F)c1` [Compound 20, {1-(cis-4-{[4-(1-hydroxy-1-methylethyl)-6-(trifluoromethyl)pyridin-2-yl]oxy}cyclohexyl)-3-[4-(7H-pyrrolo[2,3-d]pyrimidin-4-yl)-1H-pyrazol-1-yl]azetidin-3-yl}acetonitrile] are < 10 nM and >10.
In the same order, the values of `N#CCC1(n2cc(-c3ncnc4[nH]ccc34)cn2)CN([C@H]2CC[C@@H](Oc3cc(CN4CC[C@@H](O)C4)cc(C(F)(F)F)n3)CC2)C1` [Compound 21, {1-(cis-4-{[4-{[(3R)-3-hydroxypyrrolidin-1-yl]methyl}-6-(trifluoromethyl)pyridin-2-yl]oxy}cyclohexyl)-3-[4-(7H-pyrrolo[2,3-d]pyrimidin-4-yl)-1H-pyrazol-1-yl]azetidin-3-yl}acetonitrile] are < 10 nM and >10.
For `N#CCC1(n2cc(-c3ncnc4[nH]ccc34)cn2)CN([C@H]2CC[C@@H](Oc3cc(CN4CC[C@H](O)C4)cc(C(F)(F)F)n3)CC2)C1` [Compound 22, {1-(cis-4-{[4-{[(3S)-3-hydroxypyrrolidin-1-yl]methyl}-6-(trifluoromethyl)pyridin-2-yl]oxy}cyclohexyl)-3-[4-(7H-pyrrolo[2,3-d]pyrimidin-4-yl)-1H-pyrazol-1-yl]azetidin-3-yl}acetonitrile], in that order: < 10 nM and >10.
For `C[C@@H](CO)NCc1cc(OC2CCN([C@H]3C[C@](CC#N)(n4cc(-c5ncnc6[nH]ccc56)cn4)C3)CC2)nc(C(F)(F)F)c1` [Compound 23, {trans-3-(4-{[4-({[(1S)-2-hydroxy-1-methylethyl]amino}methyl)-6-(trifluoromethyl)pyridin-2-yl]oxy}piperidin-1-yl)-1-[4-(7H-pyrrolo[2,3-d]pyrimidin-4-yl)-1H-pyrazol-1-yl]cyclobutyl}acetonitrile], the IC50 in test [1] is < 10 nM. Moreover, the JAK2/JAK1 in test [2] is recorded as >10.
For the compound `C[C@@H](O)CNCc1cc(OC2CCN([C@H]3C[C@](CC#N)(n4cc(-c5ncnc6[nH]ccc56)cn4)C3)CC2)nc(C(F)(F)F)c1` [Compound 24, {trans-3-(4-{[4-({[(2R)-2-hydroxypropyl]amino}methyl)-6-(trifluoromethyl)pyridin-2-yl]oxy}piperidin-1-yl)-1-[4-(7H-pyrrolo[2,3-d]pyrimidin-4-yl)-1H-pyrazol-1-yl]cyclobutyl}acetonitrile], the IC50 in test [1] was < 10 nM. Further, the JAK2/JAK1 in test [2] is on record as >10.
For `C[C@H](O)CNCc1cc(OC2CCN([C@H]3C[C@](CC#N)(n4cc(-c5ncnc6[nH]ccc56)cn4)C3)CC2)nc(C(F)(F)F)c1` [Compound 25, {trans-3-(4-{[4-({[(2S)-2-hydroxypropyl]amino}methyl)-6-(trifluoromethyl)pyridin-2-yl]oxy}piperidin-1-yl)-1-[4-(7H-pyrrolo[2,3-d]pyrimidin-4-yl)-1H-pyrazol-1-yl]cyclobutyl}acetonitrile], in that order: < 10 nM and >10.
For `N#CC[C@]1(n2cc(-c3ncnc4[nH]ccc34)cn2)C[C@H](N2CCC(Oc3cc(CCO)cc(C(F)(F)F)n3)CC2)C1` [Compound 26, {trans-3-(4-{[4-(2-hydroxyethyl)-6-(trifluoromethyl)pyridin-2-yl]oxy}piperidin-1-yl)-1-[4-(7H-pyrrolo[2,3-d]pyrimidin-4-yl)-1H-pyrazol-1-yl]cyclobutyl}acetonitrile], in that order: < 10 nM and >10.
